Positions of bridges follow the written chain, without caps; N, C: chain ends. No end group written: not given here. *: point of attachment. FITC = O=C1OC2(c3ccc(O)cc3Oc3cc(O)ccc32)c2ccc(NC(=S)*)cc21
Legend:
[1] = test system: RD xenograft tumors and control organs; assay: FITC-peptide distribution in xenograft mice; format: in vivo, mouse; settings: RD xenografts, i.v.
Description: Figure 2 FITC-labeled RMS-P3 binding in vitro and distribution in vivo. (A) Visualization of FITC-RMS-P3 peptide binding in normal and cancer cells in vitro. Cultured myoblasts (SkMC-c), fibroblasts (MRC-5), RMS cells (RD) and breast carcinoma cells (MDA-MB 231) were incubated with 100 nM FITC-RMS-P3 peptide for 1 h at 37°C. Fluorescence microscopy of fixed cells is shown. (B) Living RD cells were incubated with FITC-RMS-P3 peptide, subsequently fixed and stained with giantin (red). Colocalization is shown in the merged picture by yellow. Blue staining (DAPI) indicates the nuclei. Magnifications: 40x, scale bars: 20 µm. (C) Distribution of FITC-RMS-P3 and control peptide FITC-RMS-Pctrl in mice xenografts of RD cells. FITC-RMS-P3 or control FITC-RMS-Pctrl peptide were injected i.v. and after 10 minutes of circulation, mice were perfused and tumor and control organs were collected. Cryosections were double-labeled with mouse endothelial vessels markers CD31 and MECA-32 (red). Nuclear staining by DAPI is shown in blue. Magnifications: 40x, scale bars: 20 µm.
Figure 3 Identification of the receptor for RMS-P3. (A) Alanine-scan of the RMS-P3 sequence. RMS-P3 was mutated by replacing each amino acid residue with alanine (codon GCT). All phage mutants were tested individually for binding to RD cells in vitro. Mutated residues are indicated in bold. Phage binding was quantified over non-recombinant T7 and compared to the binding of wild type phage RMS-P3. Depicted are mean values ± SD of three independent experiments. […] (B) FITC-RMS-P3/RR and FITC-RMS-P3/AA distribution in RD xenograft mice. After tail vein injection of both FITC-RMS-P3/RR or control peptide RMS-P3/AA and circulation of 10 min, mice were perfused, tumors and control organs were dissected and FITC-peptide distribution (green) was evaluated in cryosections under fluorescence microscopy. Blood endothelial stainings (CD31 and MECA32) are shown in red, nuclear staining in blue (DAPI). Magnification: 20x, scale bar 50 µm. (C) Expression of proprotein convertases (PCs) measured by microarray profiling of 9 RMS cell lines and 30 RMS biopsy samples. Expression of PCs recognizing the cleavage site R(X)(R/K)(R/K) were considered. Each cell line or biopsy is represented by one data point. (D) Furin expression in different cell lines. Normal myoblasts (SkMC-c), fibroblasts (MRC-5), RMS cell lines (RD, Rh4, Rh30), furin-deficient colorectal carcinoma cells (LoVo) and furin-positive breast carcinoma cells (MBA-MB 231) were tested for furin expression by qRT-PCR (upper graph). […] Western blot (lower panels). Immature membrane-bound furin was detected at 103 kD, mature furin at 97 kD. PCNA was used as loading control.
Figure 6 FITC-RMS-P3/RR and FITC-RMS-P3/AA distribution in mice bearing RD xenografts. Peptides were injected i.v. and after circulation the mice were perfused, tumors and control organs were removed and peptide distribution was evaluated on cryosections by fluorescence microscopy. Depicted are overlay images (B, upper left panel) and single channel pictures. FITC-peptide stainings (green), either furin or endothelial stainings (CD31, MECA32) in red and cell nuclei in blue (DAPI) are shown. Magnification: 40x, scale bars 50 µm.
Supplementary file pone.0010445.s002.tif: Figure S2 Subcellular localization of FITC-RMS-P3 peptide. (A, B) FITC-RMS-P3/RR cell surface and intracellular localization. RD cells were incubated with 100 nM FITC-RMS-P3 peptide in vitro for 30 min at 4°C (A) or 37°C (B), respectively. Fixed cells were stained with undiluted 5.1H11 hybridoma supernatant against the human muscle-specific cell surface antigen N-CAM (red). A secondary rabbit anti-mouse Cy3 antibody (1∶300, Invitrogen) was used for detection. […] Cell nuclei were visualized with DAPI. Nuclei are indicated in grey. Magnification: 63x, scale bars: 20 µm. […]

MRC-5-FUR cells = assay: FITC-RMS-P3/RR binding to furin-transfected fibroblasts; format: cell-based; settings: 100 nM, 1h at RT
Description: Figure 4 RMS-P3/RR phage binding correlates with furin expression levels. (A) Binding of phage RMS-P3/RR to untransfected (MRC-5), furin-overexpressing (MRC-FUR) and empty vector transfected MRC-5 fibroblasts (MRC-EV) was tested in vitro. Phage binding was quantified over control T7. Results of three independent experiments ± SD are shown. Western blot of the same samples for furin expression and PCNA as loading control (A, lower panels) (B) Micrographs of MRC-5 fibroblasts (upper row) and MRC-5-FUR (lower row) cells incubated with 100 nM FITC-RMS-P3/RR (green) for 1h at RT, fixed and stained with the anti-furin-antibody Mon-152 (red). Nuclei are visualized by DAPI staining (blue). Yellow indicates overlap of the two stainings. Magnification: 40x; scale bars: 20 µm. (C) Inhibition of furin maturation in α1-PDX-transfected RD cells reduces phage binding. Phage RMS-P3/RR binding to untransfected RD, furin-inhibited RD-PDX and empty-vector transfected RD-EV cells was determined over non-recombinant T7 in three independent experiments (means ± SD). Expression of the inhibitor α1-PDX was confirmed by western blotting using 100 µg cell extract with antiserum against α1AT (C, lower panels). (D) Effect of the specific PC-inhibitor Dec-RVKR-cmk on phage RMS-P3/RR binding. […] Phage binding was calculated over T7. […]

RD cells [2] = assay: competition of phage RMS-P3 binding by synthetic peptide; format: cell-based; settings: for regression slope b of phage RMS-P3 binding versus peptide concentration: least-squares regression, N = 18, RMS-P3 r^2 = 0.889, p<0.0001, control r^2 = 0.0002, p = 0.959
Description: Figure 1 Validation of selected phages binding on RMS cells in vivo and in vitro. (A) Quantification of binding of single phage clones to different cell lines. Six phages selected from in vitro and in vivo screenings were validated individually in binding assays to three RMS cell lines (embryonal RMS: RD; alveolar RMS: Rh30 and Rh4) as well as to normal myoblasts (SkMC-c) and fibroblast cells (MRC-5). Phage clones are ordered according to the frequency of occurrence. Binding was calculated over non-recombinant T7, depicted are mean values ± SD of three independent experiments. (B) RMS-P3 and RMS-P6 phage distribution in RD mouse xenografts. Homing of phages to tumor was compared to control organs. Binding was normalized over phage T7 and tissue weight. Mean values ± SD of four independent experiments are shown. Numerical values for tumor to organ ratios are indicated above the bars. (C) Validation of RMS-P3 peptide sequence by competition of phage binding. 10^6 RD cells were incubated for 30 min with increasing concentrations of RMS-P3 peptide ([…]) or control peptide ([…]). Then, phages (10^9 pfu) were added for 1 h. Phage binding was normalized over non-recombinant T7. Data are presented as percentage of maximal phage binding obtained in the absence of synthetic peptide. Error bars indicate mean ± SD from three independent experiments. […] TEXT PRINTED IN THE PICTURE: (B) RMS-P6: tumor: 1; muscle: 1/6; kidney: 1/8; brain: 1/28; skin: 1/12 | (B) RMS-P3: tumor: 1; muscle: 1/24; kidney: 1/15; brain: 1/12; skin: 1/10 DOUBTS OF THE COPYIST ABOUT THIS PICTURE: Panel B: the picture prints no measure for the numbers over the bars. Each tissue name was assigned from the bar fill and the order of the printed key. / RMS-P6, brain: 1/28, the last digit may be 8 or 6 (small print)
(§1) 10^6 RD cells were detached (2.5 mM EDTA-PBS) and reconstituted (DMEM/1% BSA). Cells were preincubated with 100 µl of peptides (RMS-P3 or RMS-Pctrl) or general PC inhibitor decanoyl-Arg-Val-Lys-Arg-chloromethylketone (Dec-RVKR-cmk, Calbiochem, Switzerland) for 30 minutes. Phages (10^9 pfu) were added for 1 hour at RT under continuous rotation. Cells were washed four times with DMEM/1% BSA; titer of bound phage was determined by titration with BLT5403 and calculated over non-recombinant T7.

RD cells [3] = assay: competition of phage RMS-P3/RR binding by Dec-RVKR-cmk; format: cell-based
Description: Figure 4 RMS-P3/RR phage binding correlates with furin expression levels. (A) Binding of phage RMS-P3/RR to untransfected (MRC-5), furin-overexpressing (MRC-FUR) and empty vector transfected MRC-5 fibroblasts (MRC-EV) was tested in vitro. Phage binding was quantified over control T7. Results of three independent experiments ± SD are shown. Western blot of the same samples for furin expression and PCNA as loading control (A, lower panels) (B) Micrographs of MRC-5 fibroblasts (upper row) and MRC-5-FUR (lower row) cells incubated with 100 nM FITC-RMS-P3/RR (green) for 1h at RT, fixed and stained with the anti-furin-antibody Mon-152 (red). Nuclei are visualized by DAPI staining (blue). Yellow indicates overlap of the two stainings. Magnification: 40x; scale bars: 20 µm. (C) Inhibition of furin maturation in α1-PDX-transfected RD cells reduces phage binding. Phage RMS-P3/RR binding to untransfected RD, furin-inhibited RD-PDX and empty-vector transfected RD-EV cells was determined over non-recombinant T7 in three independent experiments (means ± SD). Expression of the inhibitor α1-PDX was confirmed by western blotting using 100 µg cell extract with antiserum against α1AT (C, lower panels). (D) Effect of the specific PC-inhibitor Dec-RVKR-cmk on phage RMS-P3/RR binding. Competition was performed with increasing concentrations of Dec-RVKR-cmk and constant amounts of phage (10^9 pfu). Phage binding was calculated over T7.
as §1

RD xenografts = assay: targeted doxorubicin treatment of RD xenografts
Description: Five groups of 6 mice were treated when tumors reached 60 mm^3 in size. Treatment consisted of weekly tail vein injections for 30 days.
CD1-Nu/nu mice (4 to 6 weeks old, Charles River, Germany) were used for the in vivo screening, and 6 weeks old NOD/SCID IL2R γ-/- mice were used for all other studies. RMS cells (5×10^6 in 150 µl HBSS) were injected subcutaneously into the dorsolateral flank of the mice. Both diameters (d) of the spherical tumors were measured twice weekly and the volume was calculated with the general formula V = (4/3) πr^3, whereby r = (d1+d2)/4. Prior to the experiment, mice were anesthetized with 0.015 ml/g avertin by i.p. injection. 1 mg/ml of FITC-peptide in 250 µl PBS was injected by tail vein injection into mice bearing tumors 150 mm^3 in size. After 10 minutes circulation, mice were perfused, tumor and control organs were dissected and frozen in O.C.T. embedding medium (Leica Microsystems, Germany). 10 µm cryosections were washed with PBS, fixed for 15 minutes in ice-cold methanol and air-dried. Endothelial stainings were performed using rat monoclonal antibodies against mouse markers CD31 and MECA-32, both at the dilution of 1∶50 (BD biosciences, Switzerland). A rabbit polyclonal anti-furin-antibody (Abcam) was used at a dilution of 1∶1500. All corresponding secondary antibodies were AlexaFluor594-labeled IgGs (1∶300, Invitrogen).
Mice with size-matched tumors (∼60 mm^3) were randomized into five groups and injected once per week for 4 consecutive weeks. […] Control groups received either a mixture of 10 µg free doxorubicin and peptide RMS-P3/RR, an equimolar solution of peptide RMS-P-3/RR alone or PBS alone. Concentrations were confirmed by measuring the absorbance of conjugated doxorubicin at 490 nm. […] Mice were monitored for weight and tumor growth for 30 days.

Substance: FITC-RMS-P3/RR ({FITC}-GGCMGTINTRTRRC; also: cyclic peptide, ring type and places not given here)
- peptide distribution to muscle ([1]; 10 min circulation): not in control organs
- peptide uptake in kidney ([1]; 10 min circulation): not in control organs
- peptide accumulation in tumor ([1]; 10 min circulation, cryosections): Accumulation
- peptide accumulation in tumor ([1]; 10 min circulation, cryosections, listed as FITC-labeled RMS-P3/RR): strong peptide fluorescence
- colocalization with furin around blood vessels in tumor ([1]; cryosections): furin colocalized with peptide RMS-P3/RR fluorescence
- penetration into the tumor ([1]; around blood vessels, cryosections): about 30 µm
- colocalization of furin and FITC-peptide (MRC-5-FUR cells; anti-furin-antibody Mon-152): clear colocalization
- FITC-peptide binding to MRC-5-FUR cells (MRC-5-FUR cells; in contrast to untransfected cells): strong peptide binding

Substance: CSPNNTRRPNKC (disulfide 1-12 (inferred)) [RMS-Pctrl]
- effect on phage RMS-P3 binding (RD cells [2]; increasing peptide concentrations): no effect
- regression slope b of phage RMS-P3 binding versus peptide concentration (RD cells [2]): 0.055

Substance: CMGTINTRTKKC (disulfide 1-12 (inferred)) [RMS-P3]
- IC50 (RD cells [2]; RD cells, 10^6, peptide preincubated 30 min, then phage 10^9 pfu 1 h at RT, three independent experiments, read-out: Half-maximal inhibition (IC50) of phage RMS-P3 binding): ~100 nM
- regression slope b of phage RMS-P3 binding versus peptide concentration (RD cells [2]): −17.5
- phage RMS-P3 binding remaining (RD cells [2]; peptide at highest concentration tested (10 µM), percentage of maximal phage binding): 7.5%

Substance: decanoyl-Arg-Val-Lys-Arg-chloromethylketone [Dec-RVKR-cmk]
- phage RMS-P3/RR binding in presence of inhibitor (RD cells [3]; 1 µM Dec-RVKR-cmk, RD cells, 30 min preincubation, phage 10^9 pfu 1 h): half-maximal
- effect on binding of control phage RMS-P3/AA (RD cells [3]; Dec-RVKR-cmk, RD cells): remained unaffected
- regression slope b of phage RMS-P3/RR binding versus Dec-RVKR-cmk concentration (RD cells [3]; least-squares regression, N = 18, r^2 = 0.883, p<0.0001): −17.9

Substance: Doxorubicin-succinyl-GG-CMGTINTRTRRC (disulfide) [Dox-RMS-P3/RR]
- tumor size compared to Dox alone, Dox and peptide, peptide alone or vehicle (RD xenografts; 10 µg doxorubicin equivalent/week i.v., student's t-test, p<0.05): significantly smaller
- increase in therapeutic efficacy compared to doxorubicin treatment alone (RD xenografts; RMS in mice): two-fold
- delay in tumor growth compared to untargeted drug delivery (RD xenografts; weekly tail vein injections, 30 days): significant delay in tumor growth
